Source: PubChem BioAssay (NCI)
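Following 48 hours of exposure in 96-well plates, responses at five concentrations were used to interpolate endpoints linearly. The concentration for 50% growth inhibition is given as GI50. TGI denotes the concentration required for complete inhibition of growth.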

Experiments:
Assay in all cases: NCI anticancer screen, dose series, 48 h
SF-268 CNS = test system: SF-268 CNS
SK-MEL-28 melanoma = test system: SK-MEL-28 melanoma
SN12C renal = test system: SN12C renal
OVCAR-4 ovarian = test system: OVCAR-4 ovarian
SNB-75 CNS = test system: SNB-75 CNS
HS 578T breast = test system: HS 578T breast
HOP-92 NSCLC = test system: HOP-92 NSCLC
HOP-62 NSCLC = test system: HOP-62 NSCLC
MDA-MB-435 = test system: MDA-MB-435
SK-MEL-5 melanoma = test system: SK-MEL-5 melanoma

SMILES	GI50 (SF-268 CNS)	TGI (SF-268 CNS)	GI50 (SK-MEL-28 melanoma)	TGI (SK-MEL-28 melanoma)	GI50 (SN12C renal)	TGI (SN12C renal)	GI50 (OVCAR-4 ovarian)	TGI (OVCAR-4 ovarian)	GI50 (SNB-75 CNS)	TGI (SNB-75 CNS)	GI50 (HS 578T breast)	TGI (HS 578T breast)	GI50 (HOP-92 NSCLC)	TGI (HOP-92 NSCLC)	GI50 (HOP-62 NSCLC)	TGI (HOP-62 NSCLC)	GI50 (MDA-MB-435)	TGI (MDA-MB-435)	GI50 (SK-MEL-5 melanoma)	TGI (SK-MEL-5 melanoma)
O=C1Nc2ccc(F)cc2/C1=C/c1ccc[nH]1	> 25 µM	> 25 µM	> 25 µM	> 25 µM	> 25 µM	> 25 µM	4.06 µM	> 25 µM	> 25 µM	> 25 µM	> 25 µM	> 25 µM	> 14.1 µM	> 25 µM	> 25 µM	> 25 µM	> 25 µM	> 25 µM	> 25 µM	> 25 µM
CC(CO)(CO)NCCCCn1ccc2c1C(=O)c1c(c(O)c3ccccc3c1O)C2=O	14.4 µM	40.9 µM			11.2 µM	24.2 µM					30.3 µM	73.4 µM	5.73 µM	22.7 µM	14 µM	28.9 µM	1.76 µM	3.56 µM		
Br[C](Br)(Br)[Hg][c]1ccccc1	24.1 µM	56.2 µM	14.3 µM	27.8 µM	16.2 µM	29.7 µM	19.9 µM	41.9 µM	15.8 µM	32.6 µM	23.2 µM	66.2 µM	12.5 µM	25.3 µM	13.4 µM	18.7 µM	16.1 µM	30 µM	11.7 µM	24.8 µM
CC1=C(O)C(=O)C=C2C1=CC=C1[C@@]2(C)CC[C@@]2(C)[C@@H]3C[C@](C)(C(=O)O)CC[C@]3(C)CC[C@]12C		0.106 µM		0.0345 µM		0.142 µM		0.174 µM		0.327 µM		3.7 µM		0.0777 µM		0.963 µM		0.157 µM		0.228 µM
COc1cccc(C#Cc2ccccc2C#CCCCCO)c1	16.1 µM	33.5 µM	15.3 µM	30.3 µM	11.6 µM	27 µM	20.4 µM	44.2 µM	12.8 µM	26.3 µM	22.9 µM	56.9 µM	2.49 µM	21.7 µM	15.5 µM	34.3 µM	1.92 µM	8.2 µM	19.1 µM	33.8 µM
C/C(N=NC(=S)N(C)C)=C1\C=CC=CN1O		> 100 µM		> 100 µM		> 100 µM		> 100 µM		> 100 µM		> 100 µM		> 100 µM		> 47.3 µM		> 100 µM		> 100 µM
COc1cccc2c(=O)c3c(sc12)c(N1CCNCC1)nc1ccccc13	1.75 µM	3.45 µM	1.86 µM	3.4 µM	1.54 µM	3.06 µM	1.8 µM	3.62 µM	1.56 µM	2.98 µM	1.7 µM	3.71 µM	1.24 µM	2.73 µM	1.87 µM	4.3 µM	1.76 µM	3.23 µM	1.7 µM	3.09 µM
CCCCCCCCCCCCCCCCCCOc1ccccc1CC(=O)OCC[N+]1(C)CCCC1	1.55 µM	3.34 µM	2.72 µM	7.86 µM	1.94 µM	4.27 µM	2.94 µM	12.1 µM	1.26 µM	3.07 µM	2.41 µM	7.01 µM	1.22 µM	3.37 µM			1.73 µM	3.31 µM		
CN(C)C(=O)[C@H](O)[C@H](Cc1ccccc1)NC(=O)c1cc2cc(Cl)ccc2[nH]1	21.1 µM	73.3 µM	19 µM	54.5 µM	23.5 µM	> 95.1 µM	25.8 µM	> 100 µM	17.4 µM	65.6 µM	27.5 µM	> 100 µM	17 µM	56.8 µM	22.6 µM	66.6 µM	22.9 µM	70.1 µM	15.6 µM	30.6 µM
O=C1[C@@H]2C(c3ccccc3F)=NO[C@@H]2C(=O)N1c1ccc(Cc2ccc(N3C(=O)[C@H]4C(c5ccccc5F)=NO[C@H]4C3=O)cc2)cc1		> 100 µM		> 100 µM		> 100 µM		> 100 µM		> 100 µM				> 100 µM		> 100 µM				> 100 µM
O=c1c2cc(Br)cc(Br)c2nc(CCCl)n1CCO		> 100 µM		> 100 µM		> 100 µM		> 100 µM		93.5 µM				> 100 µM		> 100 µM				> 100 µM
COc1ccc(C(=O)COc2ccc(/C=C3\COc4ccc(OC)cc4C3=O)cc2)cc1	23.7 µM	60.5 µM	19.9 µM	56.9 µM	30.9 µM	> 100 µM	17.4 µM	69.2 µM	20 µM	69.9 µM	10.7 µM	34.2 µM			24.8 µM	47.7 µM	6.46 µM	78.5 µM	24.6 µM	> 100 µM
O=C1CC2c3ccccc3CCC2c2ccccc21 (configuration not stated)		> 100 µM		> 100 µM						> 100 µM		53.4 µM				> 100 µM		98.6 µM		31 µM
O=C1CC2CCCC23CC2(CCN13)OCCO2 (configuration not stated)		> 100 µM		> 100 µM		> 100 µM		> 100 µM		> 100 µM				> 100 µM		> 100 µM				> 100 µM
ClCc1cccc(Cn2cnc3nc(Cl)nc(Cl)c32)c1	1.38 µM	3.83 µM	0.503 µM	1.13 µM			1.56 µM	3.21 µM	0.912 µM	2.2 µM	0.43 µM	2.51 µM	1.46 µM	2.78 µM	1.99 µM	3.44 µM	1.65 µM	3.16 µM	0.614 µM	1.94 µM
COc1cc(/C=C/c2cc(/C=C/c3ccc(O)c(OC)c3)n(C(=O)Nc3ccc(C)cc3C)n2)ccc1O			0.509 µM	2.46 µM			0.464 µM	2.99 µM			0.295 µM	> 100 µM	0.576 µM	3.71 µM	0.442 µM	1.54 µM			0.327 µM	1.26 µM
